Laboratory results as given in article PMC9619220 (Computational and Structural Biotechnology Journal, 2022).

How the values were obtained:
TgPDE1 [1] = biological target: T1, TgPDE1 (Toxoplasma gondii, UniProt A0A7J6K721); experiment: colorimetric PDE assay on immunoprecipitated enzyme, dose-response (cAMP hydrolysis; […] for cGMP); assay type: biochemical
T1 construct: gene TGRH88_036470; native smHA-tagged TgPDE1 immunoprecipitated from tachyzoites

TgPDE1 [2] = biological target: T1, TgPDE1; experiment: colorimetric PDE assay, single concentration ([…]), moderate effect; assay type: biochemical
TgPDE2 = biological target: T2, TgPDE2 (Toxoplasma gondii, UniProt A0A7J6KGW2); experiment: colorimetric PDE assay, single concentration ([…]), partial inhibition of cAMP hydrolysis; assay type: biochemical
T2 construct: gene TGRH88_018390; native smHA-tagged TgPDE2 immunoprecipitated from tachyzoites

TgPDE1 [3] = biological target: T1, TgPDE1; experiment: colorimetric PDE assay on immunoprecipitated enzyme, dose-response (cAMP hydrolysis); assay type: biochemical
[4] = substrate: [H][C@@]12COP(=O)(O)O[C@@]1([H])[C@@H](O)[C@H](n1cnc3c(=O)[nH]c(N)nc31)O2; experiment: Michaelis-Menten kinetics, colorimetric PDE assay (Km); assay type: biochemical, Toxoplasma gondii

## CC(C)c1n[nH]c2c(=O)[nH]c(Cc3ccccc3)nc12 [BIPPO, 5-benzyl-3-isopropyl-1H-pyrazolo (4,3-d) pyrimidin-7(6H)-one]
TgPDE1 [1]
  IC50: 310 nM

## CC(C)Cn1c(=O)n(C)c(=O)c2[nH]cnc21 [IBMX, 3-isobutyl-1-methylxanthine]
TgPDE1 [2]
  colorimetric PDE assay, single concentration (100 μM), moderate effect: The effect of IBMX on TgPDE1 was moderate.
TgPDE2
  colorimetric PDE assay, single concentration (100 μM), partial inhibition of cAM: hydrolysis of cAMP by TgPDE2 was sensitive to partial inhibition by IBMX but to none of the other drugs

## CCCOc1ccccc1-c1nc2nn[nH]c2c(=O)[nH]1 [zaprinast, 1,4-Dihydro-5-(2-propoxyphenyl)-7H-1,2,3-triazolo (4,5-d) pyrimidin-7-one]
TgPDE1 [3]
  IC50: 1490 nM

B1: TgPDE1 (Toxoplasma gondii) (protein)
chain: MRLREHSLLLCVDAMSRDSPVASPAHSGVFGPSADAEVSEVFSLPSLSAVPGAASASSLSRENSLVSSRRASPSVSPPAGSPLWRLVRRCGQGEGERENVERCRLRERREECGAARRGPPASAATSDCSCPSAGDRRRVQSRRRRARTFQGRSFCGNHVSTEAEREGETEGEEETEGEEGREEYDSKRRGRLARRLGRRFVIAAAERGRKREGEETIVLRGNQGECWQEAQRTADSPDCSSSSVCCFGGSCSTASQCCACMRLASVSCPSPRSSFSTFHCSLPAVSSASAAFVCPRESPGSDSNSSPSCASSRGFSPSSPKATVSSSRPSSSSASPLRSSLSAPSGLFPVGSGCSSDVCVSVPLPAMFRGCRVHSSAPSSRTEQGTALLTGAPPSANELEAASAMANPTNSSRFSRVKTVSFATLSECGSSHISRRSDSASEPEAEREKPGLCSMRVARRESSPAARSPGRQSERRGTDSSCTSLPQRSDRAGRDRVGSRGSAEQRSSTSSRRVSDHSRAEAGLWSAGLGDSGASLEPDLESRSAFLRRCRARLAAARRKVCQAFQSLAEHDLVFRMKEDLAQMRHESSLRSVFADGCRERSGVEMSERTRLSVGGGTGRHLSVGTSTHKEGSTHKEGSEKERIRDGGSASPSTHLSRSGSGDVILRRFPLKFVDRGLEDLFADNINRWMATRLLMGVLSLVVTSVMWPLMAWSFNLLDAFNHSEPLGILFHINMAVTVFVAVLFIVTKRCRHLAEHAELIADGGTFLVVTIWGIWNTTASYILEHSYVQDVIGSAYPMHPADAPISLEKTSAWSTSLEASSAVAYLYGLLLIVQLDVVYPSRTRRTWQVHLMFFGFSTASIVIRGALNPDFVPVPFVVIRALTYLMLTVFLFIGRHATELQQRHTFYNWLTTRKRMDRLESDLKRQREKVKVSTAVEQLVHMVKHCMESCQTVESEVGSELHVSYRSLLIDCHQTLSRCLSILTHTSDLYTVQFGDLDSDAHRDIIQAFLNNHNSSPADWTRVTTAAYTRGVEDGCWSASDASSEAKSGDLGTPFAGSEALALVRRDSSHSWASSRGASAWPIQANWTGTLDGVHVHAFLHAVPEACGGAATPEHDGLRGEGLGDLGRASPRRQAGRQLTRLDEGRERDSEPEDLTDDGDSAEPPKNAASETEEKVSVPDNGRKTPTQALGEMKPGLTSKGLHDTLARVRASTHREVESRGRERRGDSAPCSSPSQRLTPQSLADFQARLRYEALIKLVHTSPRTPELSLGIPVSEEAARDWNFDCLRHAQLSPTPLVDVGYALLHRTSEDLRLPPDVVLRFLTAVEIQYNHVPYHNCIHGLMVAQKMVALTEVLELSQSIGSRDRALVVVAGLCHDIGHPGRNNALFINALDPVAVLYNDKSVLENYHSCLTFKTLELPDCDIFFSLRTKDYHMVRSLIIDLILATDMKNHFETVSRFRVRRNALDFDLSSEEDFWFAVKIIMKCADLSHCSVPWSQHFQWCQRLSVEFYDQGDEEVARHLPMSPLCDREKHSEVAKSQLGFMSFVAVPLFEELMAIDGTGNIEKYCISVMKTNASHWEALSSAAVPVPLLGEAPSPDVAPPLLHLIDGSGAAAVHPGSKAAEIANRYASSTVTTLDLTCLVYRTQLNRARRSSQQSGRRVSEGTSA
notes: native smHA-tagged TgPDE1 immunoprecipitated from tachyzoites
[4]
  Km: 18 µM
